Key:
Experiment in all cases: MTT cell proliferation assay
Format in all cases: cell-based, human
U87 cells = test system: U87 cells
Description: (§1) Human tumor cell lines Eca-109, BEL-7402, BxPC-3, HCT-116, HT-29, T24, HCT-8, SGC-7901, DLD-1, TE-1, BT-549, MGC-803 and human hepatocyte cell line L-02 were cultured in Roswell Park Memorial Institute (RPMI) 1640. HuH-7 and SW-480 were cultured in Dulbecco’s modified Eagle’s medium (DMEM). J82, HepG2, Hela, U87 were cultured in Minimum Essential Medium (MEM). Murine bladder cancer cell line, MB49, was cultured in DMEM. The above-mentioned culture medium was provided by GIBCO (Grand Island, USA), contained 10% fetal bovine serum (PAN, Germany), 10 mg/mL of streptomycin, and 10 kU/mL penicillin (Beyotime, China).
(§2) Cells were seeded in 96-well plates and incubated with indicated concentrations of CHNQD-01281 for indicated periods. Next, medium was discarded and MTT (5 mg/mL) was added to each well. The cells were incubated at 37 °C for another 4 h. After that, supernatant was discarded, and DMSO was added and incubated at 37 °C for 15 min. Finally, absorbance was measured at 570 nm (Molecular Devices, USA).
(§3) To investigate whether CHNQD-01281 had selective inhibitory effect on cancer cell lines, a variety of human tumor cell lines were assayed by MTT, such as bladder cancer cell lines (J82 and T24), colorectal cancer cell lines (HCT-116, HT-29, HCT-8, DLD-1 and SW-480), cervical cancer cell line (Hela), esophageal cancer cell lines (TE-1 and Eca-109), breast cancer cell line (BT-549), gastric carcinoma cell lines (MGC-803 and SGC-7901), glioma cell line (U87), pancreatic carcinoma cell line (BxPC-3) and hepatocellular carcinoma cell lines (Hep G2, BEL-7402 and HuH-7) (Fig. 2A).

BEL-7402 cells = test system: BEL-7402 cells
Description: as §1, §2, §3

HCT-116 cells = test system: HCT-116 cells
Description: as §1, §2, §3

SW-480 cells = test system: SW-480 cells
Description: as §1, §2, §3

Eca-109 cells = test system: Eca-109 cells
Description: as §1, §2, §3

Hela cells = test system: Hela cells
Description: as §1, §2, §3

Hep G2 cells = test system: Hep G2 cells
Description: as §1, §2, §3

BxPC-3 cells = test system: BxPC-3 cells
Description: as §1, §2, §3

DLD-1 cells = test system: DLD-1 cells
Description: as §1, §2, §3

J82 cells = test system: J82 cells
Description: as §1, §2, §3

BT-549 cells = test system: BT-549 cells
Description: as §1, §2, §3

TE-1 cells = test system: TE-1 cells
Description: as §1, §2, §3

HT-29 cells = test system: HT-29 cells
Description: as §1, §2, §3

HuH-7 cells = test system: HuH-7 cells
Description: as §1, §2, §3

HCT-8 cells = test system: HCT-8 cells
Description: as §1, §2, §3

T24 cells = test system: T24 cells
Description: as §1, §2, §3

MGC-803 cells = test system: MGC-803 cells
Description: as §1, §2, §3

SGC-7901 cells = test system: SGC-7901 cells
Description: as §1, §2, §3

Question: Which results are given for `C[C@H]1CCC/C=C/[C@@H]2C[C@H](O)C[C@H]2[C@H](OC(=O)/C=C/c2cccnc2)/C=C/C(=O)O1` [CHNQD-01281, Brefeldin A 4-O-3-(pyridin-3-yl) acrylate]?
Answer: IC90 (U87 cells; Homo sapiens, U-87 MG, U87, MTT): > 1000 nM; IC50 (U87 cells; Homo sapiens, U-87 MG, U87, MTT, 72 h): 650 nM; SI (selectivity index) (U87 cells; L-02 versus U87): 1.78; IC90 (BEL-7402 cells; Homo sapiens, BEL-7402, MTT): 820 nM; IC50 (BEL-7402 cells; Homo sapiens, BEL-7402, MTT, 72 h): 260 nM; SI (selectivity index) (BEL-7402 cells; L-02 versus BEL-7402): 4.46; IC90 (HCT-116 cells; Homo sapiens, HCT-116, MTT): 640 nM; IC50 (HCT-116 cells; Homo sapiens, HCT-116, MTT, 72 h): 350 nM; SI (selectivity index) (HCT-116 cells; L-02 versus HCT-116): 3.31; IC90 (SW-480 cells; Homo sapiens, SW480, SW-480, MTT): > 1000 nM; IC50 (SW-480 cells; Homo sapiens, SW480, SW-480, MTT, 72 h): 730 nM; SI (selectivity index) (SW-480 cells; L-02 versus SW-480): 1.59; IC90 (Eca-109 cells; Homo sapiens, Eca-109, MTT): > 1000 nM; IC50 (Eca-109 cells; Homo sapiens, Eca-109, MTT, 72 h): 540 nM; SI (selectivity index) (Eca-109 cells; L-02 versus Eca-109): 2.15; IC90 (Hela cells; Homo sapiens, Hela, MTT): 780 nM; IC50 (Hela cells; Homo sapiens, Hela, MTT, 72 h): 190 nM; SI (selectivity index) (Hela cells; L-02 versus Hela): 6.11; IC90 (Hep G2 cells; Homo sapiens, HepG2, Hep G2, MTT): > 1000 nM; IC50 (Hep G2 cells; Homo sapiens, HepG2, Hep G2, MTT, 72 h): 420 nM; SI (selectivity index) (Hep G2 cells; L-02 versus Hep G2): 2.76; IC90 (BxPC-3 cells; Homo sapiens, BxPC-3, MTT): 350 nM; IC50 (BxPC-3 cells; Homo sapiens, BxPC-3, MTT, 72 h): 180 nM; SI (selectivity index) (BxPC-3 cells; L-02 versus BxPC-3): 6.44; IC90 (DLD-1 cells; Homo sapiens, DLD-1, MTT): 640 nM; IC50 (DLD-1 cells; Homo sapiens, DLD-1, MTT, 72 h): 340 nM; SI (selectivity index) (DLD-1 cells; L-02 versus DLD-1): 3.41; inhibition at 1 µM (J82 cells; Homo sapiens, J82, 1 µmol/L (highest concentration), 24 h): < 50%; IC90 (J82 cells; Homo sapiens, J82, MTT): 400 nM; IC50 (J82 cells; Homo sapiens, J82, MTT, 72 h): 81 nM; SI (selectivity index) (J82 cells; L-02 versus J82): 14.32; IC90 (BT-549 cells; Homo sapiens, BT-549, MTT): > 1000 nM; IC50 (BT-549 cells; Homo sapiens, BT-549, MTT, 72 h): 640 nM; SI (selectivity index) (BT-549 cells; L-02 versus BT-549): 1.81; IC90 (TE-1 cells; Homo sapiens, TE-1, MTT): > 1000 nM; IC50 (TE-1 cells; Homo sapiens, TE-1, MTT, 72 h): 620 nM; SI (selectivity index) (TE-1 cells; L-02 versus TE-1): 1.87; IC90 (HT-29 cells; Homo sapiens, HT-29, MTT): > 1000 nM; IC50 (HT-29 cells; Homo sapiens, HT-29, MTT, 72 h): 370 nM; SI (selectivity index) (HT-29 cells; L-02 versus HT-29): 3.14; IC90 (HuH-7 cells; Homo sapiens, HuH-7, MTT): > 1000 nM; IC50 (HuH-7 cells; Homo sapiens, HuH-7, MTT, 72 h): 510 nM; SI (selectivity index) (HuH-7 cells; L-02 versus HuH-7): 2.27; IC90 (HCT-8 cells; Homo sapiens, HCT-8, MTT): 440 nM; IC50 (HCT-8 cells; Homo sapiens, HCT-8, MTT, 72 h): 170 nM; SI (selectivity index) (HCT-8 cells; L-02 versus HCT-8): 6.82; inhibition at 0.125 µM (T24 cells; Homo sapiens, T-24, T24, 0.125 µmol/L, 120 h, read-out: inhibition of growth): ~100%; inhibition at 1 µM (T24 cells; Homo sapiens, T-24, T24, 1 µmol/L (highest concentration), 24 h): < 50%; IC90 (T24 cells; Homo sapiens, T-24, T24, MTT): 300 nM; IC50 (T24 cells; Homo sapiens, T-24, T24, MTT, 72 h): 79 nM; SI (selectivity index) (T24 cells; L-02 versus T24): 14.68; IC90 (MGC-803 cells; Homo sapiens, MGC-803, MTT): > 1000 nM; IC50 (MGC-803 cells; Homo sapiens, MGC-803, MTT, 72 h): 690 nM; SI (selectivity index) (MGC-803 cells; L-02 versus MGC-803): 1.68; IC90 (SGC-7901 cells; Homo sapiens, SGC-7901, MTT): 750 nM; IC50 (SGC-7901 cells; Homo sapiens, SGC-7901, MTT, 72 h): 340 nM; SI (selectivity index) (SGC-7901 cells; L-02 versus SGC-7901): 3.41
